“And” between values parts separate entries of the source, which are not always exact repeats. Equal entries are not always repeated. Inconclusive results and toxic doses are left out. Rule for the calls: active = survival T/C of 150% or more; inactive = T/C below 125% in these data. Peptide text beside a SMILES is read from it.
System: P388 leukemia ip, CD2F1 mice, survival T/C
Experiment: NCI In Vivo Anticancer Drug Screen. Data for tumor model P388 Leukemia (intraperitoneal) in CD2F1 (CDF1) mice
Settings: endpoint: median survival time, higher = longer survival
Method in brief: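 Mice carrying the transplanted tumor received test compound or vehicle. Survival was recorded in each group, and the value is the treated-group measurement divided by that of the vehicle-treated control group.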

[1] = dose: 60.0 mg/kg/injection, schedule: Q01DX005 (ip), vehicle: saline with Tween-80
[2] = dose: 120.0 mg/kg/injection, schedule: Q01DX005 (ip), vehicle: saline with Tween-80
[3] = dose: 240.0 mg/kg/injection, schedule: Q01DX005 (ip), vehicle: saline with Tween-80
[4] = dose: 15.0 mg/kg/injection, schedule: Q01DX005 (ip), vehicle: saline with Tween-80
[5] = dose: 30.0 mg/kg/injection, schedule: Q01DX005 (ip), vehicle: saline with Tween-80
[6] = dose: 50.0 mg/kg/injection, schedule: Q01DX005 (ip), vehicle: saline with Tween-80
[7] = dose: 100.0 mg/kg/injection, schedule: Q01DX005 (ip), vehicle: saline with Tween-80
[8] = dose: 200.0 mg/kg/injection, schedule: Q01DX005 (ip), vehicle: saline with Tween-80
[9] = dose: 50.0 mg/kg/injection, schedule: Q01DX005 (ip), vehicle: saline

Measured: T/C

CC1C(O)[C@@]2(OC[C@@]34C(=O)CC5(O)[C@H](CCC6Cc7nc8c(nc7C[C@]65C)CC5CC[C@@H]6C7=C[C@H]9O[C@@]%10(O[C@@](C)(CO)C[C@@H]%10O)C(C)[C@@]9(O)[C@]7(C)[C@@H](O)CC6[C@]5(C)C8)C3=CC[C@H]4C2C)OC1(C)C (stereo not given in full)
inactive: dose: 10.0 micrograms/kg/injection, schedule: Q01DX005 (ip), vehicle: saline + alcohol 117 % of control and 121 % of control | dose: 20.0 micrograms/kg/injection, schedule: Q01DX005 (ip), vehicle: saline + alcohol 115 % of control and 117 % of control | dose: 40.0 micrograms/kg/injection, schedule: Q01DX005 (ip), vehicle: saline + alcohol 123 % of control and 124 % of control | dose: 40.0 micrograms/kg/injection, schedule: Q01DX009 (ip), vehicle: saline + alcohol 115 % of control

COc1cc2cc(-c3ccccn3)nc(N)c2cc1OC
inactive: [1] 100 % of control | [2] 101 % of control

O=C1/C(=C/c2ccc(/C=C3\CCc4ccccc4C3=O)cc2)CCc2ccccc21
inactive: dose: 50.0 mg/kg/injection, schedule: Q01DX009 (ip), vehicle: Klucel (hydroxypropylcellulose) (HPC) 102 % of control | dose: 100.0 mg/kg/injection, schedule: Q01DX009 (ip), vehicle: Klucel (hydroxypropylcellulose) (HPC) 99 % of control | dose: 200.0 mg/kg/injection, schedule: Q01DX009 (ip), vehicle: Klucel (hydroxypropylcellulose) (HPC) 101 % of control

COc1ccc(C(=O)C(CN2CCOCC2)CN2CCOCC2)cc1
inactive: dose: 60.0 mg/kg/injection, schedule: Q01DX005 (ip), vehicle: saline 96 % of control | dose: 120.0 mg/kg/injection, schedule: Q01DX005 (ip), vehicle: saline 111 % of control

Nc1nc(Cc2ccccc2)c(-c2ccccc2)c(-c2nc(N)nc(Cc3ccccc3)c2-c2ccccc2)n1
inactive: [1] 100 % of control | [2] 105 % of control | [3] 99 % of control

CCC(C)NCCNCCNC(C)CC (stereo not given)
inactive: dose: 6.25 mg/kg/injection, schedule: Q01DX009 (ip), vehicle: saline 100 % of control | dose: 12.5 mg/kg/injection, schedule: Q01DX009 (ip), vehicle: saline 100 % of control | dose: 25.0 mg/kg/injection, schedule: Q01DX009 (ip), vehicle: saline 100 % of control

CC(=O)c1cn[nH]c1NC(=O)c1ccccc1
inactive: dose: 8.75 mg/kg/injection, schedule: Q01DX005 (ip), vehicle: Klucel (hydroxypropylcellulose) (HPC) 103 % of control | dose: 17.5 mg/kg/injection, schedule: Q01DX005 (ip), vehicle: Klucel (hydroxypropylcellulose) (HPC) 103 % of control | dose: 35.0 mg/kg/injection, schedule: Q01DX005 (ip), vehicle: Klucel (hydroxypropylcellulose) (HPC) 95 % of control

COc1ccc(-n2[nH]c3c(cnc4ccccc43)c2=O)cc1
inactive: [4] 87 % of control | [5] 87 % of control | [1] 90 % of control | [2] 100 % of control | [3] 94 % of control

CCOC(=O)C(Br)(C(=O)OCC)C(C)C
inactive: dose: 50.0 mg/kg/injection, schedule: Q01DX009 (ip), vehicle: saline 111 % of control | dose: 100.0 mg/kg/injection, schedule: Q01DX009 (ip), vehicle: saline 109 % of control | dose: 200.0 mg/kg/injection, schedule: Q01DX009 (ip), vehicle: saline 120 % of control

O=C1CCOCCCOCCC(=O)OCCCOC(=O)CCOCCCOCCC(=O)OCCCO1
inactive: dose: 50.0 mg/kg/injection, schedule: Q01DX005 (ip), vehicle: Klucel (hydroxypropylcellulose) (HPC) 100 % of control | dose: 100.0 mg/kg/injection, schedule: Q01DX005 (ip), vehicle: Klucel (hydroxypropylcellulose) (HPC) 105 % of control

COC(=O)C1=C(C(=O)OC)[C@@H]2CC[C@H]1[C@H]1[C@@H]2N=NN1c1ccccc1
inactive: [6] 106 % of control | [7] 86 % of control | [8] 99 % of control

Cc1ccc(-n2c(C)nc3c(c(C)c(C)n3-c3ccccc3)c2=N)cc1
inactive: dose: 6.25 mg/kg/injection, schedule: Q01DX005 (ip), vehicle: Klucel (hydroxypropylcellulose) (HPC) 90 % of control | dose: 12.5 mg/kg/injection, schedule: Q01DX005 (ip), vehicle: Klucel (hydroxypropylcellulose) (HPC) 100 % of control | dose: 25.0 mg/kg/injection, schedule: Q01DX005 (ip), vehicle: Klucel (hydroxypropylcellulose) (HPC) 98 % of control

O=C(Nc1c(Cl)cccc1Cl)Oc1cccc2cccnc12
inactive: [4] 97 % of control | [5] 107 % of control | [1] 100 % of control and 92 % of control

CCCCc1c(C)[nH]n(C(N)=NCCSCc2nc[nH]c2C)c1=O
inactive: dose: 60.0 mg/kg/injection, schedule: Q01DX005 (ip), vehicle: Klucel (hydroxypropylcellulose) (HPC) 100 % of control | dose: 120.0 mg/kg/injection, schedule: Q01DX005 (ip), vehicle: Klucel (hydroxypropylcellulose) (HPC) 99 % of control | dose: 240.0 mg/kg/injection, schedule: Q01DX005 (ip), vehicle: Klucel (hydroxypropylcellulose) (HPC) 100 % of control

CCCCC(CC)C(=O)OC(C)CN(CC(C)OC(=O)C(CC)CCCC)C(=O)C(C)OC(=O)C(CC)CCCC (stereo not given)
inactive: [6] 103 % of control | [7] 96 % of control | [8] 103 % of control

CCOC(=O)CN1CCC(C(=O)OC)CC1
inactive: dose: 100.0 mg/kg/injection, schedule: Q04DX003 (ip), vehicle: saline 100 % of control | dose: 200.0 mg/kg/injection, schedule: Q04DX003 (ip), vehicle: saline 100 % of control | dose: 400.0 mg/kg/injection, schedule: Q04DX003 (ip), vehicle: saline 100 % of control

CCN(CC)CCN1C(=O)CN=C(c2ccccn2)c2cc(Cl)ccc21
inactive: dose: 50.0 mg/kg/injection, schedule: Q01DX009 (ip), vehicle: saline with Tween-80 100 % of control | dose: 100.0 mg/kg/injection, schedule: Q01DX009 (ip), vehicle: saline with Tween-80 95 % of control | dose: 200.0 mg/kg/injection, schedule: Q01DX009 (ip), vehicle: saline with Tween-80 100 % of control

COc1ccc(CN2CC(=O)N3Cc4ccccc4CN3C(=O)C2)cc1
inactive: [6] 103 % of control | [7] 103 % of control | [8] 103 % of control

NC(CCC(=O)O)C(=O)NC(Cc1c[nH]c2ccccc12)C(=O)NC(CCC(=O)O)C(=O)O (stereo not drawn) (H-Glu-Trp-Glu-OH; configuration not given here)
inactive: [9] 93 % of control | dose: 100.0 mg/kg/injection, schedule: Q01DX005 (ip), vehicle: saline 104 % of control | dose: 200.0 mg/kg/injection, schedule: Q01DX005 (ip), vehicle: saline 105 % of control

OC1CC2c3ccccc3C1c1cccc[n+]12 (stereo not given)
inactive: dose: 12.5 mg/kg/injection, schedule: Q01DX005 (ip), vehicle: saline 106 % of control | dose: 25.0 mg/kg/injection, schedule: Q01DX005 (ip), vehicle: saline 108 % of control | [9] 103 % of control and 106 % of control

Source: PubChem BioAssay AID330 (DTP/NCI, 2004)
